Results taken from US20180344725A1, “QUINOLONE CHALCONE COMPOUNDS AND USES THEREOF” (priority 2015, published 2018).

What was measured:
H69AR = assay: SRB-based cytotoxicity assay; type: cell-based, human; settings: for Resistance (fold): H69AR versus SW-1271; for IC50: Homo sapiens, H69AR, multidrug-resistant
Method: 1845B5 and MCF-10A non-cancer breast cell lines were cultured in DME/F12 medium supplemented with 10% fetal bovine serum, antibiotics and growth factors. […] The human small cell lung carcinoma H69 cell line and its multidrug-resistant MRP1-overexpressing isogenic H69AR cell line were purchased from ATCC. […] H69 cells grow as large multi-cell aggregates, making it difficult to accurately count cell numbers. […] The IL-6 dependent bortezomib-resistant ANBL6-BR cell line was further supplemented with 1 ng/ml of IL-6. The MCF10AT1 and MCF10CA1a cell lines are isogenic to the MCF10A cell line, and obtained from Dr. Valerie Weaver at the Center for Bioengineering and Tissue Regeneration, UCSF, CA, USA. […] The drug-resistant cells were cultured in the absence of drug for at least one passage before carrying out experiments. All cells were maintained in a humidified incubator at 37° C. […] Cell line authentication was performed using short tandem repeat (STR) profiling. […] Some wells were treated with 100 μl of 10% trichloroacetic acid (TCA) as a negative control and sham (medium with dimethyl sulfoxide; DMSO) treated cells were used as a positive control. […] TCA was removed and cells were washed with cold tap water, and plate was air-dried, followed by addition of 50 μl of 0.4% SRB staining solution to each well. After 30 minutes incubation, SRB staining solution was removed. Cells were washed with 1% acetic acid solution, and then washed with tap water to remove unbound staining solution, followed by air-drying. 200 μl of 10 mM (pH10.5) trizma base buffer was added to each well to solubilise macromolecules. […] Cell growth (inhibition) was calculated by the following formula: % cells proliferation=[(AT-CT)/(ST-CT)]×100 wherein AT=absorbance of treated cells, CT=absorbance of negative control cells, and ST=absorbance of sham treated cells. […] CI values were determined from four independent experiments.

MCF10CA1a = assay: SRB cell viability, isogenic breast cell lines; type: cell-based; settings: MCF10CA1a (MCF10Ala [sic]), 72 hours; for Cell survival rate: 0.39 μM; for viability at 0.03125 µM: 31.25 nM
Method: FIG. 9 illustrates that CTR-17, CTR-20, CTR-21 and CTR-32 preferentially kill the fully malignant […] breast cancer cells over the pre-malignant MCF10AT1 and the non-malignant MCF-10A breast cells. Cells were treated with (A) CTR-17 at doses of 0.10, 0.39, 1.56 or 6.25 μM; (B) CTR-20 at doses of 0.10, 0.39, 1.56 or 6.25 μM; (C) CTR-21 at doses of 7.81, 15.63, 31.25, 62.5, 125 or 250 nM; or (D) CTR-32 at doses of 7.81, 15.63, 31.25, 62.5, 125 or 250 nM for 72 hours. Cell viability was determined using an SRB assay.
All of the cell lines used were purchased from ATCC and cultured in RPMI-1640 supplemented with 10% fetal bovine serum and antibiotics (100 units penicillin/100 μg/ml streptomycin), unless stated otherwise. 1845B5 and MCF-10A non-cancer breast cell lines were cultured in DME/F12 medium supplemented with 10% fetal bovine serum, antibiotics and growth factors. KB-3-1 is a human epidermal carcinoma cell line and KB-C-2 is its isogenic multidrug-resistant cell line with over-expressing ABCB1/P-gp. […] The human small cell lung carcinoma H69 cell line and its multidrug-resistant MRP1-overexpressing isogenic H69AR cell line were purchased from ATCC. The H69AR cell line was established in the presence of increasing concentrations of Adriamycin (doxorubicin). H69 cells grow as large multi-cell aggregates, making it difficult to accurately count cell numbers. Therefore, the cytotoxicity results obtained from H69AR cells were compared to SW1271, a small cell lung carcinoma cell line without a multidrug-resistant phenotype. The IL-6 dependent bortezomib-resistant ANBL6-BR cell line was further supplemented with 1 ng/ml of IL-6. The MCF10AT1 and MCF10CA1a cell lines are isogenic to the MCF10A cell line, and obtained from Dr. Valerie Weaver at the Center for Bioengineering and Tissue Regeneration, UCSF, CA, USA. MCF10AT1 is a premalignant cell line generated by transforming MCF10A with c-Ha-Ras; and MCF10CA1a was isolated by selecting malignant cells after MCF10AT1 cells were engrafted into mice (Liu & Lin 2004; Marella et al. 2009). The MCF10AT1 and MCF10CA1a cells were cultured in DMEM supplemented with 10% FBS (volume/volume). MDA-MB231TaxR cell line was generated in house by culturing MDA-MB231 cells in gradually increasing doses of paclitaxel over one-year period, and finally maintained at 100 nM paclitaxel. The drug-resistant cells were cultured in the absence of drug for at least one passage before carrying out experiments. All cells were maintained in a humidified incubator at 37° C. (5% CO2/95% air). Cell line authentication was performed using short tandem repeat (STR) profiling.
For (anti)proliferation assays, 4,000-5,000 cells/well of the 96-well clustered dish were incubated for 16 hours, as described previously (Hu et al., 2008; Skehan et al., 1990). After 16 hours, culture medium was replaced with fresh medium containing different dilutions of test compounds dissolved in DMSO. Some wells were treated with 100 μl of 10% trichloroacetic acid (TCA) as a negative control and sham (medium with dimethyl sulfoxide; DMSO) treated cells were used as a positive control. After 72 hours post-incubation, medium was removed and cells were fixed with 10% TCA at 4° C. for 1 hour. TCA was removed and cells were washed with cold tap water, and plate was air-dried, followed by addition of 50 μl of 0.4% SRB staining solution to each well. After 30 minutes incubation, SRB staining solution was removed. Cells were washed with 1% acetic acid solution, and then washed with tap water to remove unbound staining solution, followed by air-drying. 200 μl of 10 mM (pH10.5) trizma base buffer was added to each well to solubilise macromolecules. SRB stained macromolecules were determined at a 540 nm wavelength using an automated plate reader (Synergy H4 Hybrid Multi-Mode Microplate Reader, BioTek, Winooski, Vt.). Cell growth (inhibition) was calculated by the following formula: […]

With `COc1ccccc1C(=O)/C=C/c1cc2ccccc2[nH]c1=O` [CTR-17, (E)-3-(3-(2-Methoxyphenyl)-3-oxoprop-1-enyl)quinolin-2(1H)-one] the “Resistance (fold)” value (H69AR) was 0.45 fold, the IC50 (H69AR) was 0.52 ± 0.1 µM and the Cell survival rate (MCF10CA1a) was 39%.
`COc1ccc2[nH]c(=O)c(/C=C/C(=O)c3ccccc3OC)cc2c1` [CTR-20, (E)-6-Methoxy-3-(3-(2-methoxyphenyl)-3-oxoprop-1-enyl) quinolin-2(1H)-one] was tested, and the “Resistance (fold)” value (H69AR) was 0.13 fold, the IC50 (H69AR) was 0.13 ± 0.01 µM and the Cell survival rate (MCF10CA1a) was 10%.
In the case of `COc1ccccc1C(=O)/C=C/c1cc2cccc(OC)c2[nH]c1=O` [CTR-21, (E)-8-methoxy-3-(3-(2-methoxyphenyl)-3-oxoprop-1-enyl) quinolin-2(1H)-one], the viability at 0.03125 µM (MCF10CA1a) is reported as 10%.
For `CCOc1ccccc1C(=O)/C=C/c1cc2ccccc2[nH]c1=O` [CTR-32, (E)-3-(3-(2-ethoxyphenyl)-3-oxoprop-1-enyl)quinolin-2(1H)-one], the viability at 0.03125 µM (MCF10CA1a) was 40%.
For `CC(=O)O[C@H]1C(=O)[C@@]2(C)[C@H]([C@H](OC(=O)c3ccccc3)[C@]3(O)C[C@H](OC(=O)[C@H](O)[C@@H](NC(=O)c4ccccc4)c4ccccc4)C(C)=C1C3(C)C)[C@]1(OC(C)=O)CO[C@@H]1C[C@@H]2O` [Paclitaxel, reference compound], the “Resistance (fold)” value (H69AR) was 2.44 fold.
